# Test results from ChEMBL document CHEMBL1201862, “PubChem BioAssay data set” (2004).
# pEC50: −log10 of the molar value. The source made the active and inactive calls.
# Key:
# [1] = target: T1, E3 ubiquitin-protein ligase XIAP (Homo sapiens, UniProt P98170); assay: SAR analysis of Antagonists of XIAP-Bir3 domain of IAP-family anti-apoptotic proteins. [Related pubchem assays (depositor defined):AID1018, AID1449, AID1513, AID1514, AID1638]
# [2] = target: T1, E3 ubiquitin-protein ligase XIAP; assay: SAR analysis of Antagonists of IAP-family anti-apoptotic proteins. [Related pubchem assays (depositor defined):AID1018, AID1449, AID1513, AID1514, AID1638]
# [3] = target: T2, G-protein coupled receptor 35 (Homo sapiens, UniProt Q9HC97); assay: SAR analysis of Agonists of the GPR35 Receptor using an Image-Based Assay - Set 4. [Related pubchem assays (depositor defined):AID2013, AID2026]; assay type: functional
# [4] = target: T3, Cannabinoid receptor 2 (Homo sapiens, UniProt P34972); assay: SAR analysis of agonists of the Cannabinoid Receptor 2 using an Image-Based Assay - Set 3. [Related pubchem assays (depositor defined):AID2013, AID2026]; assay type: functional
# [5] = target: T2, G-protein coupled receptor 35; assay: SAR analysis of Antagonists of the GPR35 Receptor using an Image-Based Assay - Set 6. [Related pubchem assays (depositor defined):AID2013, AID2026]; assay type: functional
# [6] = target: T4, G-protein coupled receptor 55 (Homo sapiens, UniProt Q9Y2T6); assay: SAR Analysis of Selective Antagonists of GPR55 using an Image-Based Assay - Set 4. [Related pubchem assays (depositor defined):AID2013, AID2026]; assay type: functional
# [7] = target: T3, Cannabinoid receptor 2; assay: SAR analysis of antagonists of the Cannabinoid Receptor 2 using an Image-Based Assay - Set 3. [Related pubchem assays (depositor defined):AID2013, AID2026]; assay type: functional
# [8] = target: T5, Cannabinoid receptor 1 (Homo sapiens, UniProt P21554); assay: SAR analysis of antagonists of the Cannabinoid Receptor 1 using an Image-Based Assay - Set 4. [Related pubchem assays (depositor defined):AID2013, AID2026]; assay type: functional
# [9] = target: T5, Cannabinoid receptor 1; assay: SAR analysis of agonists of the Cannabinoid Receptor 1 using an Image-Based Assay - Set 4. [Related pubchem assays (depositor defined):AID2013, AID2026]; assay type: functional
# [10] = target: T2, G-protein coupled receptor 35; assay: SAR analysis of Antagonists of the GPR35 Receptor using an Image-Based Assay - Set 3. [Related pubchem assays (depositor defined):AID2013, AID2026]; assay type: functional
# [11] = target: T2, G-protein coupled receptor 35; assay: SAR analysis of Agonists of the GPR35 Receptor using an Image-Based Assay - Set 2. [Related pubchem assays (depositor defined):AID2013, AID2026]; assay type: functional
# [12] = target: T3, Cannabinoid receptor 2; assay: SAR analysis of agonists of the Cannabinoid Receptor 2 using an Image-Based Assay. [Related pubchem assays (depositor defined):AID2013, AID2026]; assay type: functional
# [13] = target: T5, Cannabinoid receptor 1; assay: SAR analysis of agonists of the Cannabinoid Receptor 1 using an Image-Based Assay - Set 2. [Related pubchem assays (depositor defined):AID2013, AID2026]; assay type: functional
# [14] = target: T4, G-protein coupled receptor 55; assay: GPR55 antagonists blocking LPI-driven arrestin recruitment, primary screen, imaging, U2OS, beta-arrestin-GFP, LPI agonist (AID 2013); assay type: functional;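 note: antagonist potency measured as reduced agonist-driven arrestin aggregation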
# [15] = target: T5, Cannabinoid receptor 1; assay: SAR analysis of antagonists of the Cannabinoid Receptor 1 using an Image-Based Assay - Set 2. [Related pubchem assays (depositor defined):AID2013, AID2026]; assay type: functional
# [16] = target: T3, Cannabinoid receptor 2; assay: SAR analysis of antagonists of the Cannabinoid Receptor 2 using an Image-Based Assay. [Related pubchem assays (depositor defined):AID2013, AID2026]; assay type: functional
# [17] = target: T4, G-protein coupled receptor 55; assay: GPR55 antagonist potency of analogs, SAR follow-up, imaging, U2OS, beta-arrestin-GFP, LPI agonist, set 2 (AID 2820); assay type: functional
# [18] = target: Mu-type opioid receptor (Homo sapiens, UniProt P35372); assay: HTS Image-Based Screen for Agonists of the MOR Receptor. [Related pubchem assays (depositor defined):AID1777, AID1785, AID1786, AID2133]; assay type: functional;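 note: imaging of beta-arrestin GFP recruitment into spots after receptor activation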
# [19] = target: T6, Kappa-type opioid receptor (Homo sapiens, UniProt P41145); assay type: functional
# [20] = target: T7, Delta-type opioid receptor (Homo sapiens, UniProt P41143); assay: HTS Image-Based Screen for Antagonists of the DOR Receptor. [Related pubchem assays (depositor defined):AID1777, AID1785, AID1786, AID2133]; assay type: functional
# [21] = target: T7, Delta-type opioid receptor; assay: HTS Image-Based Screen for Agonists of the DOR Receptor. [Related pubchem assays (depositor defined):AID1777, AID1786, AID2133]; assay type: functional
# [22] = target: T6, Kappa-type opioid receptor; assay type: functional; remark: listed apart in the source
# [23] = target: T8, Tyrosine-protein phosphatase non-receptor type 22 (Homo sapiens, UniProt Q9Y2R2); assay: SAR LYP1 Fluorescent Assay using OMFP substrate for In Vitro dose response studies - Set 3. [Related pubchem assays (depositor defined):AID1779, AID1784, AID2140, AID2686]; assay type: functional
# T8 sequence (Q9Y2R2 whole entry): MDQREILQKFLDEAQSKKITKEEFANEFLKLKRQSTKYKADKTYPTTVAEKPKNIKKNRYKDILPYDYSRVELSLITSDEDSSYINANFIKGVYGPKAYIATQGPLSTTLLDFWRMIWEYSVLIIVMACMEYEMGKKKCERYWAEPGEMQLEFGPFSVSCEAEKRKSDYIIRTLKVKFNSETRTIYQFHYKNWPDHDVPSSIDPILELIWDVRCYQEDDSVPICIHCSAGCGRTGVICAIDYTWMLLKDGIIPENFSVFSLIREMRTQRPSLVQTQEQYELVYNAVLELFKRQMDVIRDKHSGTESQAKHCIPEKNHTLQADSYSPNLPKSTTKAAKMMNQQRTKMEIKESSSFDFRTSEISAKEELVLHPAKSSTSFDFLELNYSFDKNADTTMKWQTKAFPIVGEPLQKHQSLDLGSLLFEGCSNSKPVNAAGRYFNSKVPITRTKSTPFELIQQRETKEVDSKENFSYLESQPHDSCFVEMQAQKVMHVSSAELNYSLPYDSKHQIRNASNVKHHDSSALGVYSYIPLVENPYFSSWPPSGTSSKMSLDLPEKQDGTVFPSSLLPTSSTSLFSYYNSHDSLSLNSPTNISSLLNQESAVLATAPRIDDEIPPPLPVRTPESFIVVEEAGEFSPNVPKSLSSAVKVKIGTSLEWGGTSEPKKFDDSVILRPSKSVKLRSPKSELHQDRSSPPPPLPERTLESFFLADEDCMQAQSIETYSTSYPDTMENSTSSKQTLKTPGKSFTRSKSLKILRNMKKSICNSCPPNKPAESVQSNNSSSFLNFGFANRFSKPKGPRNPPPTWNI
# [24] = target: T8, Tyrosine-protein phosphatase non-receptor type 22; assay: PubChem AID 2140
# [25] = target: T8, Tyrosine-protein phosphatase non-receptor type 22; assay: SAR LYP1 Fluorescent Assay using OMFP substrate for In Vitro dose response studies - Set 2. [Related pubchem assays (depositor defined):AID1779, AID1784, AID2140, AID449726, AID488869]; assay type: functional
# [26] = target: T9, Tyrosine-protein phosphatase non-receptor type 7 (Homo sapiens, UniProt P35236); assay: HePTP (PTPN7) phosphatase inhibitor potency, SAR follow-up, biochemical, set 2 (AID 449736); assay type: functional
# T9 sequence (P35236 whole entry): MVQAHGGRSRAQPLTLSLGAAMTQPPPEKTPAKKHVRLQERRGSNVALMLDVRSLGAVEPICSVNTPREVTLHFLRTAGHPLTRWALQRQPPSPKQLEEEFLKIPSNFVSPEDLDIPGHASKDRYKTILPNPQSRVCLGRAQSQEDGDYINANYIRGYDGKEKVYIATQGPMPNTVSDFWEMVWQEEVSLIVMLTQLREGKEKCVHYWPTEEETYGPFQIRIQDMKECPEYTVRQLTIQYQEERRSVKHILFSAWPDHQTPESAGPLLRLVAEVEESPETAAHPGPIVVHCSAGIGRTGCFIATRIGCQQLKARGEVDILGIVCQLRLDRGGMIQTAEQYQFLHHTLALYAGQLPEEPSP
# [27] = target: Tyrosine-protein phosphatase non-receptor type 12 (Homo sapiens, UniProt Q05209); assay: SAR Selectivity Analysis of small molecule inhibitors of PEST using pCAP in a fluorescence assay. [Related pubchem assays (depositor defined):AID1779, AID1784, AID2135]; assay type: functional
# [28] = target: T8, Tyrosine-protein phosphatase non-receptor type 22; assay: LYP (PTPN22) phosphatase inhibitor potency, SAR follow-up, biochemical, pCAP fluorogenic substrate, fluorescence, set 3 (AID 449727); assay type: functional
# [29] = target: T8, Tyrosine-protein phosphatase non-receptor type 22; assay: SAR LYP1 Fluorescent Assay using pCAP substrate for In Vitro dose response studies - Set 2. [Related pubchem assays (depositor defined):AID1779, AID1784, AID2135, AID449727]; assay type: functional
# [30] = target: T8, Tyrosine-protein phosphatase non-receptor type 22; assay: PubChem AID 2135
# T3 sequence (P34972 whole entry): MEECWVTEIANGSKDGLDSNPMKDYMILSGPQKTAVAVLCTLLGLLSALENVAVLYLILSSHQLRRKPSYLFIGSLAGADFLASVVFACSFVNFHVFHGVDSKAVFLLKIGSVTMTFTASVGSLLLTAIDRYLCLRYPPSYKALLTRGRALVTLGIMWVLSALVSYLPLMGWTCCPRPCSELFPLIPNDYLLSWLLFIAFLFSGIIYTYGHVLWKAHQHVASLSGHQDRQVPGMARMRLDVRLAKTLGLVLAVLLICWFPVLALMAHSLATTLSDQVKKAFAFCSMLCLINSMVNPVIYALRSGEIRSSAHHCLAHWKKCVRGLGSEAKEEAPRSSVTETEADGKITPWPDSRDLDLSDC
# T5 sequence (P21554 whole entry): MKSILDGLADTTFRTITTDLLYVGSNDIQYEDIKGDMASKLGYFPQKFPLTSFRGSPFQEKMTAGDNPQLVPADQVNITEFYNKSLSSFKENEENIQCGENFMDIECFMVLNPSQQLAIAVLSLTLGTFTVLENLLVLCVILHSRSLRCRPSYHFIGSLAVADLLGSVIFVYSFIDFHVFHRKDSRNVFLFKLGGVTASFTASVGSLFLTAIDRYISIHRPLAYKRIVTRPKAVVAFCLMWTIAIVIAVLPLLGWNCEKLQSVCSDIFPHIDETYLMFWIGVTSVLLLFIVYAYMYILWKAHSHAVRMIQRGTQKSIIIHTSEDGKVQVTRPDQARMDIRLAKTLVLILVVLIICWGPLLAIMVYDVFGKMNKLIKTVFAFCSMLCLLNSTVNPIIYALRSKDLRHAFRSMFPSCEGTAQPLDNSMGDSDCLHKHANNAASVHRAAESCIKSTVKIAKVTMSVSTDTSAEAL
# T2 sequence (Q9HC97 whole entry): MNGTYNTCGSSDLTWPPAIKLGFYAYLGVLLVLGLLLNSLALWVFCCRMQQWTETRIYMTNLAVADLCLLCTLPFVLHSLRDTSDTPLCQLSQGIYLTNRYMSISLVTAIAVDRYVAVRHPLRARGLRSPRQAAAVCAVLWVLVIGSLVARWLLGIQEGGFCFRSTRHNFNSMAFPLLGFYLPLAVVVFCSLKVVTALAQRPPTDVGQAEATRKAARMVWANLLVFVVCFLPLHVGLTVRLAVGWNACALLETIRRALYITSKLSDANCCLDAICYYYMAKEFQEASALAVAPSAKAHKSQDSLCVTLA
# T4 sequence (Q9Y2T6 whole entry): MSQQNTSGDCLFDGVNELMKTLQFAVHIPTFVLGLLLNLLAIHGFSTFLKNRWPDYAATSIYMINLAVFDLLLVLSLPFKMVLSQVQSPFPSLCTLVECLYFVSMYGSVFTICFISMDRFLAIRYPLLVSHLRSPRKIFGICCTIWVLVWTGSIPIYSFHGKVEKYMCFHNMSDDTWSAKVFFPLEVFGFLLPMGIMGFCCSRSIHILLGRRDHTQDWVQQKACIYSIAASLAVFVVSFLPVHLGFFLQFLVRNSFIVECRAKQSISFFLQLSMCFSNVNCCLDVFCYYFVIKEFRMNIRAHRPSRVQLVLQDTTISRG
# T1 sequence (P98170 whole entry, the tested form may be a part): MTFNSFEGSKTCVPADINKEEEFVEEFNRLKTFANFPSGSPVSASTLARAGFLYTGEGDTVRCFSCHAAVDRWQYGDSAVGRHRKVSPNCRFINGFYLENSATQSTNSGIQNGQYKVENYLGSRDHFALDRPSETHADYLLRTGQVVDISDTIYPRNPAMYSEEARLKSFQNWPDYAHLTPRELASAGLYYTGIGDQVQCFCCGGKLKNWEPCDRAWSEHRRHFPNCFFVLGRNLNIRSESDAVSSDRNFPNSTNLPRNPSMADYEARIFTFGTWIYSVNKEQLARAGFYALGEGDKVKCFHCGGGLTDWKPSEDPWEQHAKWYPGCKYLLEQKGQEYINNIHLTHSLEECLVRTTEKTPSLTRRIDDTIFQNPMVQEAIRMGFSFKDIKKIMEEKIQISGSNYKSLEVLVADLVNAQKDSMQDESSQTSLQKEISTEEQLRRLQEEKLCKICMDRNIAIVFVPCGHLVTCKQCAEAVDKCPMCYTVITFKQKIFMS
# T7 sequence (P41143 whole entry): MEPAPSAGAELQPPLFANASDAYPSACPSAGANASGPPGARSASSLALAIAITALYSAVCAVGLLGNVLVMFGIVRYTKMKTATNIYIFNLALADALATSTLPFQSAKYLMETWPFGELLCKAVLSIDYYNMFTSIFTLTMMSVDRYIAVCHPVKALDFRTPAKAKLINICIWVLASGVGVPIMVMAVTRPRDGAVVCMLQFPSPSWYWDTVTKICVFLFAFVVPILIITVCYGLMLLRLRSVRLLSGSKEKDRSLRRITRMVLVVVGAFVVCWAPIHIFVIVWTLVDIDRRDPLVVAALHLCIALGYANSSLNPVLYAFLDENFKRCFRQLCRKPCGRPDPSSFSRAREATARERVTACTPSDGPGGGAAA
# T6 sequence (P41145 whole entry): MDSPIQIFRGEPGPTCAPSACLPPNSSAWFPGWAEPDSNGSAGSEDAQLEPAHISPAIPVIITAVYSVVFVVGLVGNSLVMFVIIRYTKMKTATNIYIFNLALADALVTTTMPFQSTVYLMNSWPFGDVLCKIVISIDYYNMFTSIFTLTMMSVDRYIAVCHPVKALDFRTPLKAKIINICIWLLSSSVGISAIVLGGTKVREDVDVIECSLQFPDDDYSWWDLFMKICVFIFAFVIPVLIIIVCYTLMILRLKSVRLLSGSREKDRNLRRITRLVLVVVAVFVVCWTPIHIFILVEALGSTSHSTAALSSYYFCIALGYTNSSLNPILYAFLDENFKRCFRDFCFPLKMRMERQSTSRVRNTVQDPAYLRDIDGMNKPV
# Chain of Mu-type opioid receptor (P35372 whole entry): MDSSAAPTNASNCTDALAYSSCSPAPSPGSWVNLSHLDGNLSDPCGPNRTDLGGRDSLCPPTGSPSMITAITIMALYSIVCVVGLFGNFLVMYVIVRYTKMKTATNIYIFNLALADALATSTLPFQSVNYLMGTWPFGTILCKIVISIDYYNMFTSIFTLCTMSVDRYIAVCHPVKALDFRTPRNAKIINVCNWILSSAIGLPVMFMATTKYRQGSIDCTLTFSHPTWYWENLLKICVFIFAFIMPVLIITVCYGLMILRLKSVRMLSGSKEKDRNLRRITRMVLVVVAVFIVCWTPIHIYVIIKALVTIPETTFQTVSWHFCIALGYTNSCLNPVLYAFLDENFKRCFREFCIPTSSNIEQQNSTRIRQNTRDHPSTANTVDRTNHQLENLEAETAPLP
# Chain of Tyrosine-protein phosphatase non-receptor type 12 (Q05209 whole entry): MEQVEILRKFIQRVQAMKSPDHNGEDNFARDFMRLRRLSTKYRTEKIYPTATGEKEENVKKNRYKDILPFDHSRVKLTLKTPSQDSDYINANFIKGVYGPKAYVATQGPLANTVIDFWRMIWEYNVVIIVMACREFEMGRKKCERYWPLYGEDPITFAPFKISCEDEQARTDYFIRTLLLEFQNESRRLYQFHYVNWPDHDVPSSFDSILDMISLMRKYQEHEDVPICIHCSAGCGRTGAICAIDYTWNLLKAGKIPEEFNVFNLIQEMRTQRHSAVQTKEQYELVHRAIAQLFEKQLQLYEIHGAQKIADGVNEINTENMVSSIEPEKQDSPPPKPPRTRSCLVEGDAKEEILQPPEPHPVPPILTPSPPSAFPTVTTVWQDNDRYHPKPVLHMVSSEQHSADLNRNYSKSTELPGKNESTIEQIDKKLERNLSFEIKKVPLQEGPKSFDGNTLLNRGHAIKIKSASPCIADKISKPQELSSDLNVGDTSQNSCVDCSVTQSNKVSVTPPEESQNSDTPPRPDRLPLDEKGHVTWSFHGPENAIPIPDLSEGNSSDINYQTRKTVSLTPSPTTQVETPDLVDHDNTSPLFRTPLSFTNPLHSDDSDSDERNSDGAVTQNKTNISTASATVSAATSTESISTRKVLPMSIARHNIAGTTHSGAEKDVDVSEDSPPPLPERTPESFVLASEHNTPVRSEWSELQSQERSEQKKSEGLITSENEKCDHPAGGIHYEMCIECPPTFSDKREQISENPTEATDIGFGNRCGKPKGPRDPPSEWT
structure (smiles),measurement,setting,value
CN[C@@H](C)C(=O)N[C@H](C(=O)N1CCC[C@H]1C(=O)NNc1ccccc1)C(C)C,IC50,[1],2.9 µM (active)
same,IC50,[2],1.3 µM (active)
CCNC(=O)c1cc2c(=O)n3ccccc3nc2n(C2CCCC2)c1=N,EC50,[3],> 32 µM (inactive)
same,EC50,[4],3.01 µM (active)
same,IC50,[5],> 32 µM (inactive)
same,IC50,[6],29.7 µM (inactive)
same,IC50,[7],> 32 µM (inactive)
same,IC50,[8],> 32 µM (inactive)
same,EC50,[9],> 32 µM (inactive)
CCCCC1(Cc2ccc(OC)c([N+](=O)[O-])c2)C(=O)N(c2ccccc2)N(c2ccccc2)C1=O,IC50,[10],> 32 µM (inactive)
same,EC50,[11],> 32 µM (inactive)
same,EC50,[12],> 32 µM (inactive)
same,EC50,[13],> 32 µM (inactive)
same,IC50,[14],3.42 µM (active)
same,IC50,[15],> 32 µM (inactive)
same,IC50,[16],> 32 µM (inactive)
same,IC50,[17],1.81 µM (active)
O=C(c1ccc([N+](=O)[O-])cc1)N(Cc1ccc(Br)cc1)N1C(=O)CCCC1=O,EC50,[18],> 32 µM (inactive)
same,pEC50,[19],5.45
same,IC50,[20],> 32 µM (inactive)
same,EC50,[21],> 32 µM (inactive)
same,pEC50,[22],< 4.46
N#C/C(=C/c1ccc(OCc2ccc(C(=O)O)cc2)cc1)c1cccc(F)c1,IC50,[23],82.9 µM (active)
same,IC50,[24],> 100 µM (inactive)
same,IC50,[25],65.5 µM (active)
same,IC50,[26],3.65 µM (active)
same,IC50,[27],21 µM (active)
same,IC50,[28],> 100 µM (inactive)
same,IC50,[29],86.7 µM (active)
same,IC50,[30],> 100 µM (inactive)
